Measured values from publication PMC7969007, “The CRISPR ancillary effector Can2 is a dual-specificity nuclease potentiating type III CRISPR defence” (Nucleic Acids Research, 2021).

Assays:
SthCan2 = molecular target: T1, SthCan2 (Sulfobacillus thermosulfidooxidans, UniProt A0A8I3AZU2); experiment: X-ray crystal structure (co-crystal, […] A); assay type: binding; conditions: SeMet protein, protein:cA4 1:1 molar; one cA4 per dimer at the CARF dimer interface; allosteric activator of Mn2+-dependent nuclease; not degraded by the enzyme
T1 construct: synthetic gene in pEHisV5TEV, His tag cut by TEV, E. coli C43 (SeMet in B834 for the crystal); homodimer; residues 3-366 traced
T1 sequence (A0A8I3AZU2 1-366): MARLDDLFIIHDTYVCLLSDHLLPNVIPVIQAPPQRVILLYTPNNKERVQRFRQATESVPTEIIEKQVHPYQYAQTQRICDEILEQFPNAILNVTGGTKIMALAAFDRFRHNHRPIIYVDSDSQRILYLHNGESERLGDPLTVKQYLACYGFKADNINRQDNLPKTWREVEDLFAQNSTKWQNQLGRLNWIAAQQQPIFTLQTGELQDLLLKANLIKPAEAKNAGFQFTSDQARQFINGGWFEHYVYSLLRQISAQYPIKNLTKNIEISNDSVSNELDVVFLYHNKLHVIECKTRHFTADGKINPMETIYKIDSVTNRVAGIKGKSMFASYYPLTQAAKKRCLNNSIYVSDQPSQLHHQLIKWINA

[1] = molecular target: Can2 (CRISPR ancillary nuclease 2) from Sulfobacillus thermosulfidooxidans, selenomethionine labelled (Sulfobacillus thermosulfidooxidans); experiment: crystal structure; SeMet SthCan2 at 8 mg/ml co-crystallised with cA4 at 1:1 protein:cA4; 20% (w/v) PEG 3350, 0.2 M ammonium nitrate pH 6.3, room temperature; 2.02 Å; four protein molecules in the asymmetric unit

## Nc1ncnc2c1ncn2[C@@H]1O[C@@H]2COP(=O)(O)O[C@H]3[C@@H](O)[C@H](n4cnc5c(N)ncnc54)O[C@@H]3COP(=O)(O)O[C@H]3[C@@H](O)[C@H](n4cnc5c(N)ncnc54)O[C@@H]3COP(=O)(O)O[C@H]3[C@@H](O)[C@H](n4cnc5c(N)ncnc54)O[C@@H]3COP(=O)(O)O[C@H]2[C@H]1O [cA4]
SthCan2
  X-ray crystal structure (co-crystal, 2.02 A): form two dimers each bound to a molecule of cA4

## Can2 (CRISPR ancillary nuclease 2) from Sulfobacillus thermosulfidooxidans, selenomethionine labelled (enzyme)
[1]
  stoichiometry N: 2
